Results published in ChEMBL document CHEMBL3745625, “Design and synthesis of novel androgen receptor antagonists via molecular modeling” (Bioorg Med Chem, 2016).
The source made the active and inactive calls. The calls are words filed in the database; no cut-off is given here.

Each compound was assayed on LNCaP (assay: Cytotoxicity against human LNCAP cells assessed as growth inhibition at 10 uM after 5 days by MTT assay relative to control). Details: not given.
Assay type: functional

Compound	growth inhibition (GI)
Cc1cccc(NC(=O)c2ccc(N3CCc4cc(O)ccc4C3)nc2)n1	Active
CCCCOc1ccc2c(c1)CCN(c1ccc(C(=O)Nc3cccc(C)n3)cn1)C2	Active
COc1ccc2c(c1)CCN(c1cnc(C(=O)Nc3cccc(C)n3)cn1)C2	Active
CCCOc1ccc2c(c1)CCN(c1ccc(C(=O)Nc3cccc(C)n3)cn1)C2	Active

Same assay, conditions: 120 h, read-out: GI

Compound	inhibition of growth at 10 µM [%]
Cc1cccc(NC(=O)c2ccc(N3CCc4cc(OCCCc5ccccc5)ccc4C3)nc2)n1	80

The compounds below were run on LNCaP (assay: Cytotoxicity against human LNCAP cells assessed as reduction in cell viability after 4 days by MTT assay in presence of DHT and E2). Details: 96 h.
Assay type: functional, cell-based

Compound	IC50 [µM]
Cc1cccc(NC(=O)c2ccc(N3CCc4cc(O)ccc4C3)nc2)n1	1.25
CCCCOc1ccc2c(c1)CCN(c1ccc(C(=O)Nc3cccc(C)n3)cn1)C2	0.41
Cc1cccc(NC(=O)c2ccc(N3CCc4cc(OCCCc5ccccc5)ccc4C3)nc2)n1	0.35
CC(O)(CS(=O)(=O)c1ccc(F)cc1)C(=O)Nc1ccc(C#N)c(C(F)(F)F)c1 (stereo not drawn) [BICALUTAMIDE]	2.38
COc1ccc2c(c1)CCN(c1cnc(C(=O)Nc3cccc(C)n3)cn1)C2	0.49
Cc1cccc(NC(=O)c2ccc(N3CCc4ccccc4C3)nc2)n1	4.46
COc1cccc(NC(=O)c2cnc(N3CCc4ccccc4C3)nc2)c1	0.58
CCCOc1ccc2c(c1)CCN(c1ccc(C(=O)Nc3cccc(C)n3)cn1)C2	1.01

Each compound was assayed against T1, Androgen receptor (Mus musculus) (UniProt P19091) (assay: Antagonist activity at mouse androgen receptor expressed in mouse C2C12 cells at 5 uM pretreated for 1 day measured 36 hrs post transfection by luciferase reporter gene assay in presence of DHT). Details: not given.
T1 sequence (whole entry): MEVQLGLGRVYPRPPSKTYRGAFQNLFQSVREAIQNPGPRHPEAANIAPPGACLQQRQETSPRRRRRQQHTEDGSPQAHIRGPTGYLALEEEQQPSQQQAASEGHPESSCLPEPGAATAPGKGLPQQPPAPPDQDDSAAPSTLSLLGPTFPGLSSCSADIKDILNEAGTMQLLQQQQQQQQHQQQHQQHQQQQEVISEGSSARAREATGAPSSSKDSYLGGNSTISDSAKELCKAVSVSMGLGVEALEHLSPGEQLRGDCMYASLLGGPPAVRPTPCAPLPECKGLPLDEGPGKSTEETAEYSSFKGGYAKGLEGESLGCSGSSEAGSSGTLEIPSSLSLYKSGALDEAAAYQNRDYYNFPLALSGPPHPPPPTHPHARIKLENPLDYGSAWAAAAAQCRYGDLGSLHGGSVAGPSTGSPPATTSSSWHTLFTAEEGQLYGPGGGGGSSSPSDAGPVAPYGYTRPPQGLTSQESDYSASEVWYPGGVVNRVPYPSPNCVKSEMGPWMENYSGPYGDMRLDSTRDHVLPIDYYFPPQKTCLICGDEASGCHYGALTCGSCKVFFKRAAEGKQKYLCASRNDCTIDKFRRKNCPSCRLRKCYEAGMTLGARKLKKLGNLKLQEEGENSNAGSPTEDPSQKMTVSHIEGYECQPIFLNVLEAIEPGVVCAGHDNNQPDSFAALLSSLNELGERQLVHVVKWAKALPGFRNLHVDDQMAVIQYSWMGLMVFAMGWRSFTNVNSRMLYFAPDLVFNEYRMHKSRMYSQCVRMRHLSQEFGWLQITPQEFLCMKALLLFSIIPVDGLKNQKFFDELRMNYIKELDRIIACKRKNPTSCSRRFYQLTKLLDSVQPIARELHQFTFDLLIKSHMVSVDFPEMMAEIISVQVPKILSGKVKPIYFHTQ
Assay type: cell-based

Compound	inhibition
Cc1cccc(NC(=O)c2ccc(N3CCc4cc(O)ccc4C3)nc2)n1	Active
CCCCOc1ccc2c(c1)CCN(c1ccc(C(=O)Nc3cccc(C)n3)cn1)C2	Active
Cc1cccc(NC(=O)c2ccc(N3CCc4cc(OCCCc5ccccc5)ccc4C3)nc2)n1	Active
COc1ccc2c(c1)CCN(c1cnc(C(=O)Nc3cccc(C)n3)cn1)C2	Active
COc1cccc(NC(=O)c2cnc(N3CCc4ccccc4C3)nc2)c1	Active
CCCOc1ccc2c(c1)CCN(c1ccc(C(=O)Nc3cccc(C)n3)cn1)C2	Active

The compounds below were run on C2C12 (assay: Cytotoxicity against mouse C2C12 cells assessed as reduction in cell viability at 10 uM after 3 days by MTT assay). Details: c2c12, 72 h.
Assay type: cell-based

Compound	Activity
Cc1cccc(NC(=O)c2ccc(N3CCc4cc(O)ccc4C3)nc2)n1	Non-toxic
CCCCOc1ccc2c(c1)CCN(c1ccc(C(=O)Nc3cccc(C)n3)cn1)C2	Non-toxic
Cc1cccc(NC(=O)c2ccc(N3CCc4cc(OCCCc5ccccc5)ccc4C3)nc2)n1	Non-toxic
COc1ccc2c(c1)CCN(c1cnc(C(=O)Nc3cccc(C)n3)cn1)C2	Non-toxic
COc1cccc(NC(=O)c2cnc(N3CCc4ccccc4C3)nc2)c1	Non-toxic
CCCOc1ccc2c(c1)CCN(c1ccc(C(=O)Nc3cccc(C)n3)cn1)C2	Non-toxic

Each compound was assayed on LNCaP (assay: Cytotoxicity against human LNCAP cells assessed as reduction in cell viability at 10 uM after 3 days by MTT assay in presence of DHT and E2). Details: not given.
Assay type: functional, cell-based

Compound	Activity
Cc1cccc(NC(=O)c2ccc(N3CCc4cc(O)ccc4C3)nc2)n1	Active
CCCCOc1ccc2c(c1)CCN(c1ccc(C(=O)Nc3cccc(C)n3)cn1)C2	Active
Cc1cccc(NC(=O)c2ccc(N3CCc4cc(OCCCc5ccccc5)ccc4C3)nc2)n1	Active
COc1ccc2c(c1)CCN(c1cnc(C(=O)Nc3cccc(C)n3)cn1)C2	Active
COc1cccc(NC(=O)c2cnc(N3CCc4ccccc4C3)nc2)c1	Active
CCCOc1ccc2c(c1)CCN(c1ccc(C(=O)Nc3cccc(C)n3)cn1)C2	Active

Each compound was assayed against T2, Estrogen receptor (Homo sapiens) (UniProt P03372) (assay: Antagonist activity at human estrogen receptor expressed in mouse C2C12 cells at 5 uM pretreated for 1 day measured 36 hrs post transfection by luciferase reporter gene assay in presence of ER agonist estradiol). Details: not given.
T2 sequence (whole entry): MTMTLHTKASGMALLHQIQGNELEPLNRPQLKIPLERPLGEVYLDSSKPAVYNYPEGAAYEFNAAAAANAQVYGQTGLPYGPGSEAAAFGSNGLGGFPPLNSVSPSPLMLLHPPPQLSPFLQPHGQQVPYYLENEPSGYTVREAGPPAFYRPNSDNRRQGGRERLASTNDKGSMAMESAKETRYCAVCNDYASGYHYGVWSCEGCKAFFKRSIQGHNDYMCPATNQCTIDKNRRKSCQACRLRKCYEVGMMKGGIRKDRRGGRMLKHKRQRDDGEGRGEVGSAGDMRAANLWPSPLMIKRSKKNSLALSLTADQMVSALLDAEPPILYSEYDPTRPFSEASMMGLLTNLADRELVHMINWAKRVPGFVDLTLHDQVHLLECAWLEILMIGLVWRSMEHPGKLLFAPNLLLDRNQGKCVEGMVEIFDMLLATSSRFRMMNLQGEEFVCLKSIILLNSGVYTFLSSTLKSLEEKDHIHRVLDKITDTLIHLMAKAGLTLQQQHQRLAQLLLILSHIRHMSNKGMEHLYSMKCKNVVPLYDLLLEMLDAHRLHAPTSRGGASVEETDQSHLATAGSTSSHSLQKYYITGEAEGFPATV
Assay type: cell-based

Compound	inhibition
Cc1cccc(NC(=O)c2ccc(N3CCc4cc(O)ccc4C3)nc2)n1	Active

What follows are compounds tested against T3, Glucocorticoid receptor (Homo sapiens) (UniProt P04150) (assay: Antagonist activity at glucocorticoid receptor (unknown origin) expressed in mouse C2C12 cells at 5 uM pretreated for 1 day measured 36 hrs post transfection by luciferase reporter gene assay in presence of GR agonist […]). Details: not given.
T3 sequence (whole entry): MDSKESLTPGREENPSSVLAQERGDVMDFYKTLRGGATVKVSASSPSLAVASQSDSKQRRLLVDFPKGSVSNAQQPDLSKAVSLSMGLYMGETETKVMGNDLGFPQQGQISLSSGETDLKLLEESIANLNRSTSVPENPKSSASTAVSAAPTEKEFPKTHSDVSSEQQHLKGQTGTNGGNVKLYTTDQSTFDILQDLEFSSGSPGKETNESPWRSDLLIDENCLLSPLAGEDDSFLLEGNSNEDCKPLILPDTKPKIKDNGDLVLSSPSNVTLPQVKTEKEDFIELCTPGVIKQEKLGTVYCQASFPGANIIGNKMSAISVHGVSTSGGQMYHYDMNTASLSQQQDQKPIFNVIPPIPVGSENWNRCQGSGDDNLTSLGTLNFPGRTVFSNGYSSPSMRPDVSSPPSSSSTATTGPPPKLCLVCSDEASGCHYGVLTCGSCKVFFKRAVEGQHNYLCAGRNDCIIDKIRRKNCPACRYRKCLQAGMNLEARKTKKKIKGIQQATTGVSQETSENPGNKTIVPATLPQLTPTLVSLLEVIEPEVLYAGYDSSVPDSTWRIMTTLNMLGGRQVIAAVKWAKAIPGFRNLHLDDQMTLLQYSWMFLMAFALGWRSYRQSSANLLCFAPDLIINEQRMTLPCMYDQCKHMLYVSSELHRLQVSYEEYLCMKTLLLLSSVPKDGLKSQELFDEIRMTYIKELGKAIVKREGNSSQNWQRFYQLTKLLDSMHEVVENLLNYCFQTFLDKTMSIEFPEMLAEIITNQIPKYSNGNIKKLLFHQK
Assay type: cell-based

Compound	inhibition
Cc1cccc(NC(=O)c2ccc(N3CCc4cc(O)ccc4C3)nc2)n1	inactive
CCCCOc1ccc2c(c1)CCN(c1ccc(C(=O)Nc3cccc(C)n3)cn1)C2	inactive
Cc1cccc(NC(=O)c2ccc(N3CCc4cc(OCCCc5ccccc5)ccc4C3)nc2)n1	inactive
COc1ccc2c(c1)CCN(c1cnc(C(=O)Nc3cccc(C)n3)cn1)C2	inactive
COc1cccc(NC(=O)c2cnc(N3CCc4ccccc4C3)nc2)c1	inactive
CCCOc1ccc2c(c1)CCN(c1ccc(C(=O)Nc3cccc(C)n3)cn1)C2	inactive
